Laboratory results from patent publication US9089601B2, “Pre- and intra-operative imaging of bladder cancer” (University of Rochester, priority 2006, dated 2015).

Tests used:
[1] = tested on: mammals; conditions: cited from earlier work; for neuronal toxicity: used in mammals
[2] = tested on: UPII-SV40T transgenic mice; assay: Intravesical instillation of ICG and intraoperative NIRF identification of lymphatic channels and SLNs in bladder tumor mice; format: in vivo
[3] = cited from earlier work

Molecule | neuronal toxicity [1] | toxicity ([1]; in vivo) | animals showing draining lymphatic channels and SLNs ([2]; 12 female mice, intravesical ICG 2.5 mg/mf, 100 or 200 μl, NIRF 20, 30 and 60 minutes later) [animals] | visualization of SLNs by intraoperative imaging ([2]; dye instilled at 10, 20, 30, or 60 minutes before imaging) | sentinel nodes detected per animal ([2]; in all animals, intravesical ICG, NIRF) | location of SLNs ([2]; intravesical ICG, NIRF) | fluorescence of lymphatic channels and nodes following instillation of the dye into the bladder ([2]; mouse, FIG. 1B and 1C) | metabolism ([3]; in the body) | excretion ([3]; in vivo) | reabsorption from the intestine / enterohepatic recirculation ([3]; in vivo)
N=C(N)c1ccc(/C=C/c2ccc(C(=N)N)cc2O)cc1 [Fluorogold] | low evidence of neuronal toxicity | – | – | – | – | – | – | – | – | –
CC1(C)C(/C=C/C=C/C=C/C=C2\N(CCCCS(=O)(=O)O)c3ccc4ccccc4c3C2(C)C)=[N+](CCCCS(=O)(=O)[O-])c2ccc3ccccc3c21 [ICG, indocyanine green] | low evidence of neuronal toxicity | low toxicity | 12 | successfully visualized | At least two | common or external iliac lymphatic chains | fluorescing of the mouse's lymphatic channels and nodes on iliac bifurcation | not metabolized | excreted exclusively by the liver | not reabsorbed from the intestine and does not undergo enterohepatic recirculation
Fast Blue | low evidence of neuronal toxicity | – | – | – | – | – | – | – | – | –
